Data from article PMC10762035, “Molecular basis of human trace amine-associated receptor 1 activation” (Nature Communications, 2024).
Changes are numbered by the printed parent chain. Where “and” joins values, the source holds several entries; their conditions need not be identical. Equal values may be shown once. Read-outs that look alike come from different tables or passages of the source.

Experiments:
Assay type in all cases: cell-based
[1] = target: T1, hTA1 C88S (Homo sapiens, UniProt Q96RJ0, C88S); experiment: GloSensor cAMP accumulation assay, C88S mutant
T1 construct: expressed in transfected cells; host or cells: HEK293T
T1 sequence (Q96RJ0 1-339 C88S): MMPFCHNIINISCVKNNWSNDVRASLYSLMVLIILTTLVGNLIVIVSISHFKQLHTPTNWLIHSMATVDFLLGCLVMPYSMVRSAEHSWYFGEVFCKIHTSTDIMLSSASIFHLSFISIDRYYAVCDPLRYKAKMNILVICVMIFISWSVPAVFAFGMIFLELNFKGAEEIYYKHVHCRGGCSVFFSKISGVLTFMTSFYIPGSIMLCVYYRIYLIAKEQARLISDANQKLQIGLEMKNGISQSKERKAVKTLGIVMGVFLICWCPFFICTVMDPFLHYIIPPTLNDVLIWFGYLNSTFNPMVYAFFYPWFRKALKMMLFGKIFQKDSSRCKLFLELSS

[2] = target: T2, hTA1 S107C (Homo sapiens, UniProt Q96RJ0, S107C); experiment: GloSensor cAMP accumulation assay, S107C mutant;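 also: cells transiently co-expressing receptor and GloSensor biosensor, luminescence read after 30 min agonist exposure at room temperature, concentration-response fitted by nonlinear regression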
T2 construct: expressed in transfected cells; host or cells: HEK293T
T2 sequence (Q96RJ0 1-339 S107C): T1 sequence (Q96RJ0 1-339 C88S) with S88C, S107C

[3] = target: T3, hTA1 I290Y (Homo sapiens, UniProt Q96RJ0, I290Y); experiment: GloSensor cAMP accumulation assay, I290Y mutant; conditions: for cAMP accumulation response, normalized (concentration-response source data, single replicate values): hTA1 I290Y (N=3), log[Compound];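 as to cAMP accumulation response, normalized (concentration-response source data, single replicate values): normalized to the maximum response of β-PEA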
T3 construct: expressed in transfected cells; host or cells: HEK293T
T3 sequence (Q96RJ0 1-339 I290Y): T1 sequence (Q96RJ0 1-339 C88S) with S88C, I290Y

[4] = target: T4, hTA1 F195T (Homo sapiens, UniProt Q96RJ0, F195T); experiment: GloSensor cAMP accumulation assay, F195T mutant;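 also: cells transiently co-expressing HA-FLAG-tagged hTA1 and the GloSensor cAMP biosensor, luminescence read 30 min after agonist addition at room temperature, concentration-response fitted by nonlinear regression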
T4 construct: expressed in transfected cells; host or cells: HEK293T
T4 sequence (Q96RJ0 1-339 F195T): T1 sequence (Q96RJ0 1-339 C88S) with S88C, F195T

[5] = target: T5, hTA1 T271A (Homo sapiens, UniProt Q96RJ0, T271A); experiment: GloSensor cAMP accumulation assay, T271A mutant
T5 construct: expressed in transfected cells; host or cells: HEK293T
T5 sequence (Q96RJ0 1-339 T271A): T1 sequence (Q96RJ0 1-339 C88S) with S88C, T271A

SMILES: CCC(CC1COC(N)=N1)c1ccccc1 (stereo not shown) [Ro5256390]
- Emax values ([1]; C88S, Mean of fit per experiment): 141.143 and 102.28
- Emax ([1]; C88S, relative to β-PEA): 122%
- EC50 ([1]; pEC50 values, C88S, Mean of fit per experiment): 3.91 nM and 2.46 nM
- EC50 ([1]; pEC50 ± SEM, C88S, n=2): 3.09 nM
- Emax ([1]; read-out: Span ± SEM (Emax normalized to β-PEA), C88S, n=2): 122%
- EC50 ([2]; EC50, S107C, n=2): 504 nM
- decrease in potency vs wild type ([2]; S107C): approximately 100 fold
- ΔEmax values (each mutant value - WT average) ([2]; S107C mutant minus WT average): -34.2322
- Emax values, Mean ([2]; S107C mutant, β-PEA = 100, each line an independent experiment, 3 replicates): 69.072 and 124.486
- Emax ([2]; read-out: Span ± SEM (Emax normalized to β-PEA), S107C, n=2): 88.8 ± 19.8%
- EC50 ([3]; EC50, I290Y): 3.79 nM
- Emax values, Mean ([3]; I290Y, single experiments (3 replicates each), β-PEA = 100): 89.4977 and 95.7835 and 67.042
- cAMP accumulation response, normalized (concentration-response source data, single replicate values) ([3]; M = -5): 116.004 and 90.4575 and 99.9991 and 95.6306 and 94.8977 and 106.257 and 79.386 and 92.9217 and 71.4902
- cAMP accumulation response, normalized (concentration-response source data, single replicate values) ([3]; M = -5.522): 112.926 and 87.6874 and 89.8419 and 104.792 and 95.2641 and 96.3635 and 62.4664 and 47.8027 and 61.3384
- cAMP accumulation response, normalized (concentration-response source data, single replicate values) ([3]; M = -6): 83.3783 and 72.6056 and 91.3809 and 91.5998 and 83.1717 and 95.997 and 59.0825 and 62.4664 and 68.1063
- cAMP accumulation response, normalized (concentration-response source data, single replicate values) ([3]; M = -6.522): 92.9198 and 66.4498 and 97.2289 and 82.4388 and 92.3327 and 95.997 and 63.5944 and 55.6986 and 61.3384
- cAMP accumulation response, normalized (concentration-response source data, single replicate values) ([3]; M = -7): 110.156 and 60.6017 and 92.3043 and 89.4012 and 82.4388 and 95.997 and 47.8027 and 61.3384 and 55.6986
- cAMP accumulation response, normalized (concentration-response source data, single replicate values) ([3]; M = -7.522): 92.6121 and 50.1368 and 96.6133 and 79.5073 and 85.3703 and 95.2641 and 50.0587 and 56.8265 and 52.3146
- cAMP accumulation response, normalized (concentration-response source data, single replicate values) ([3]; M = -8): 93.8432 (2×) and 82.1471 and 71.4457 and 85.3703 and 69.6135 and 30.8831 (2×) and 25.2433
- cAMP accumulation response, normalized (concentration-response source data, single replicate values) ([3]; M = -8.522): 58.1394 and 51.6758 and 54.7537 and 45.0622 and 47.6273 and 45.4287 and 15.0915 and 9.4516 and 13.9635
- cAMP accumulation response, normalized (concentration-response source data, single replicate values) ([3]; M = -9): 42.442 and 23.359 and 39.3641 and 21.9767 and 28.939 and 28.2061 and 3.812 and 2.684 and 9.4516
- cAMP accumulation response, normalized (concentration-response source data, single replicate values) ([3]; M = -9.522): 12.5863 and 7.046 and 12.2785 and 10.9836 and 8.785 and 11.7164 and -2.956 and -1.828 and 0.4278
- cAMP accumulation response, normalized (concentration-response source data, single replicate values) ([3]; M = -10): 11.6629 and 9.816 and 11.9707 and -2.575 and -0.376 and 1.456 and 0.4278 and -0.7002 and -1.828
- cAMP accumulation response, normalized (concentration-response source data, single replicate values) ([3]; M = -10.522): 3.045
- EC50 ([3]; pEC50 values, Mean, I290Y, single experiments (3 replicates each)): 1.77 nM and 2.74 nM and 11.3 nM
- EC50 ([3]; pEC50 ± SEM, I290Y): 3.8 nM
- Emax ([3]; read-out: Span ± SEM (Emax normalized to β-PEA)): 84.1 ± 8.72%
- EC50 ([4]; EC50, F195T, n=2): 2.9 nM
- Emax values, Mean ([4]; F195T mutant, Figure 5B, β-PEA = 100, each row one independent experiment (3 replicates)): 107.711
- EC50 ([4]; pEC50 values, Mean, F195T mutant, Figure 5B, each row one independent experiment (3 replicates)): 1.63 nM and 4.03 nM
- Emax ([4]; read-out: Emax values, Mean, F195T mutant, Figure 5B, β-PEA = 100, each row one independent experiment (3 replicates)): 105%
- Emax ([4]; read-out: Span ± SEM (Emax normalized to β-PEA), F195T, n=2): 106 ± 1.33%
- EC50 ([5]; EC50, T271A, n=2): 14.7 nM
- Emax values, Mean ([5]; T271A mutant, Figure 5B, β-PEA = 100, each row one independent experiment (3 replicates)): 98.9093
- EC50 ([5]; pEC50 values, Mean, T271A mutant, Figure 5B, each row one independent experiment (3 replicates)): 8.67 nM and 24.8 nM
- Emax ([5]; read-out: Emax values, Mean, T271A mutant, Figure 5B, β-PEA = 100, each row one independent experiment (3 replicates)): 92.1%
- Emax ([5]; read-out: Span ± SEM (Emax normalized to β-PEA), T271A, n=2): 95.5 ± 3.42%
